Measurements taken from patent US20230106523A1, “QUERCETIN ENHANCEMENT FORMULATION” (SMARTDNA PTY LTD, priority 2020, published 2023).
Values joined by “and” are separate entries in the source; they are usually repeats but may differ in a detail not shown here. Identical values can stand only once.

How the values were obtained:
[1] = Rat study: serum quercetin concentration after oral gavage; format: in vivo, Sprague-Dawley rats; conditions: for concentration of quercetin in the serum from individual rats: one column per rat
Method: Rats were administered: • (a) Quercetin • (b) American Ruby Red grapefruit extract • (c) Quercetin and American Ruby Red grapefruit extract • (d) grapefruit extract • (e) grapefruit extract and quercetin
5 groups of 8 male Sprague-Dawley rats, aged approximately 14 weeks, weighing 350-400 gm were used in the study. The rats were bred at Hercus-Taeri Resource Unity. All of the rats were healthy and had no medication history.
1. The quercetin was dissolved in distilled water at 12.0 mg/ml immediately prior to administration.
2. American Ruby Red grapefruit was cut in half and juice obtained by manual squeezing.
The grapefruit extract used was a commercially obtained grapefruit juice.
3. A known volume of each of the grapefruit juices was lyophilized. Once dry, the residue was resuspended in distilled water to 25% of its original volume. This reduced the volume to be gavaged to each rat in the relevant groups to make the quantities of active agents administered as high as practical.
4. The quercetin/grapefruit juice formulations were prepared by dissolving the quercetin in the concentrated juices at 12.0 mg/ml.
GROUP 1. Each animal in this group received quercetin at 15 mg per kg body weight administered by oral gavage.
GROUP 2. Each animal in this group received the concentrated New Zealand grapefruit juice (American Ruby Red) at 2.5 ml per kg body weight administered by oral gavage.
GROUP 3. Each animal in this group received quercetin dissolved in the concentrated New
Zealand grapefruit juice (American Ruby Red) administered by oral gavage. The juice was administered so as to provide 15 mg quercetin per kg body weight.
GROUP 4. Each animal in this group received the concentrated grapefruit juice (prepared by Cedenco Ltd) at 2.5 ml per kg body weight administered by oral gavage.
GROUP 5. Each animal in this group received quercetin dissolved in the concentrated grapefruit juice (prepared by Cedenco Ltd) at 2.5 ml per kg body weight administered by oral gavage. The quercetin was dissolved so that it was administered at 15 mg per kg body weight.
1. A 0.5 ml time zero blood sample was taken from each animal from the lateral saphenous vein. The animals were anaesthetized using Halothane in oxygen (3.5% for knockdown, 2.5 to 3.0% for maintenance). The vein was cannulated. The zero-time blood sample was taken from each group of rats the day before the animals were gavaged. Following the collection of the blood sample, a 0.5 ml aliquot of sterile normal saline was given by intraperitoneal (IP) injection.
2. The test sample was prepared freshly immediately prior to the gavaging of each group of rats. Each animal was weighed and the volume of the test sample to be administered calculated.
3. Each rat was gavaged using proprietary gavaging needles (Popper). Once gavaging was complete the animals were left for 10 minutes before being anaesthetized using Halothane in oxygen (3.5% for knockdown, 2.5 to 3.0% for maintenance).
4. […] After each collection an equal volume of sterile saline was administered to each animal via an IP injection. The blood samples were immediately transferred to serum separating microtainer tubes (Becton Dickinson Cat. No 365956) and left to clot for 30 minutes at room temperature. The tubes were centrifuged at 3000 rpm for 10 minutes in a Beckman J6 centrifuge with a swing-out rotor. The sera were pipetted off and transferred into Eppendorf tubes/cryovials which were stored at −80° C.
The sera samples were sent to the Institute of Environmental Science and Research (ESR) (Kenepuru, Wellington, New Zealand) for quantitation of the concentration of quercetin in each. The detection limit for quercetin in serum was 5 ng/ml.

[2] = cited from earlier work
[3] = Human trial: blood serum levels of quercetin after ingestion, HPLC-UV; format: in vivo; conditions: human subject, 80 mg quercetin oral
Method: The concentration of quercetin in the blood of a human subject was measured over four hours following ingestion of: • (a) 80 mg quercetin and 200 ml filtered water, • (b) 80 mg quercetin and 200 ml grapefruit extract.
The grapefruit extract consisted of grapefruit juice that was squeezed from the grapefruit with a juicer. The collected juice was freeze-dried and redissolved as a concentrate (4 times) using water for solubilising.
The total amount of 6,7-DHB administered in the grapefruit extract in (b) above was estimated to be about 5.9 mg.
In both experiments, the quercetin was administered as a powder washed down with filtered water.
For the quercetin and grapefruit extract test, the grapefruit extract was taken two hours before the quercetin.
Serum samples were taken from the subject at 15 minute intervals. The samples were extracted into ethyl acetate and the concentration of quercetin determined using HPLC with UV detection at 315 nm. Carbamazepine was used as an internal standard.
A linear relationship for the standard curve was achieved over the range of quercetin standards of 2-150 ng/mL (using weighted linear retgression 1/x^2).
The lower limit of quantification (LLOQ) for the method was determined to be 2 ng/mL (using FDA guidelines for bio-analytical procedures) and the limit of detection was estimated to be 1 ng/mL.

[4] = cited from earlier work; remark: listed apart in the source

concentration of quercetin in the serum from individual rats ([1]; 0 min (sample taken the day before gavage)): 0 | concentration of quercetin in the serum from individual rats ([1]; 30 min after oral gavage, quercetin 15 mg/kg and/or concentrated juice 2.5 ml/kg): 0 | rats (of eight) showing quercetin in the serum ([1]; 30 minutes after administration): none was detected in any of the animals | concentration of quercetin in the serum from individual rats ([1]; 60 min after oral gavage, quercetin 15 mg/kg and/or concentrated juice 2.5 ml/kg, listed as Quercetin alone): 0 (7×) and 2 | concentration of quercetin in the serum from individual rats ([1]; 90 min after oral gavage, quercetin 15 mg/kg and/or concentrated juice 2.5 ml/kg, listed as Quercetin alone): 0 (7×) and 2 | concentration of quercetin in the serum from individual rats ([1]; 120 min after oral gavage, quercetin 15 mg/kg and/or concentrated juice 2.5 ml/kg, listed as Quercetin alone): 0 (7×) and 2 | concentration at 0 min ([3]; time 0 min): 0 ng/mL | concentration at 15 min ([3]; time 15 min): 1 ng/mL | concentration at 30 min ([3]; time 30 min): 2.3 ng/mL | concentration at 45 min ([3]; time 45 min): 3.8 ng/mL | concentration at 60 min ([3]; time 60 min): 3.1 ng/mL | concentration at 75 min ([3]; time 75 min): 1 ng/mL | concentration at 90 min ([3]; time 90 min): 0 ng/mL | concentration at 105 min ([3]; time 105 min): 0 ng/mL | concentration at 120 min ([3]; time 120 min): 0 ng/mL | concentration at 135 min ([3]; time 135 min): 0 ng/mL | concentration at 150 min ([3]; time 150 min): 0 ng/mL | concentration at 165 min ([3]; time 165 min): 0 ng/mL | concentration at 180 min ([3]; time 180 min): 0 ng/mL | concentration at 195 min ([3]; time 195 min): 0 ng/mL | concentration at 210 min ([3]; time 210 min): 0 ng/mL | concentration at 225 min ([3]; time 225 min): 0 ng/mL | concentration at 240 min ([3]; time 240 min): 0 ng/mL
SMILES: O=c1c(O)c(-c2ccc(O)c(O)c2)oc2cc(O)cc(O)c12 [Quercetin, 2-(3,4-dihydroxyphenyl)-3,5,7-trihydroxy-4H-chromen-4-one]
bioavailability of active quercetin (duration) ([2]; human studies (Graefe 1999)): no more than 10 minutes | elimination half-life ([2]; humans, after ingesting quercetin foods or supplements): 1 to 2 h | bioavailability of quercetin in humans ([2]; humans): 0-50% | water solubility [4]: low
